Results published in ChEMBL document CHEMBL1201862, “PubChem BioAssay data set” (2004).
Active and inactive are the calls of the source.

Experiments:
[1] = target: 26S proteasome non-ATPase regulatory subunit 14 (Homo sapiens, UniProt O00487); experiment: inhibition of proteasome subunit RPN11 – biochemical, fluorescence polarization, uHTS hits, confirmation (AID 602368); type: functional
[2] = target: T1, Histone-lysine N-methyltransferase NSD2 (Homo sapiens, UniProt O96028); type: biochemical
T1 sequence (O96028 whole entry): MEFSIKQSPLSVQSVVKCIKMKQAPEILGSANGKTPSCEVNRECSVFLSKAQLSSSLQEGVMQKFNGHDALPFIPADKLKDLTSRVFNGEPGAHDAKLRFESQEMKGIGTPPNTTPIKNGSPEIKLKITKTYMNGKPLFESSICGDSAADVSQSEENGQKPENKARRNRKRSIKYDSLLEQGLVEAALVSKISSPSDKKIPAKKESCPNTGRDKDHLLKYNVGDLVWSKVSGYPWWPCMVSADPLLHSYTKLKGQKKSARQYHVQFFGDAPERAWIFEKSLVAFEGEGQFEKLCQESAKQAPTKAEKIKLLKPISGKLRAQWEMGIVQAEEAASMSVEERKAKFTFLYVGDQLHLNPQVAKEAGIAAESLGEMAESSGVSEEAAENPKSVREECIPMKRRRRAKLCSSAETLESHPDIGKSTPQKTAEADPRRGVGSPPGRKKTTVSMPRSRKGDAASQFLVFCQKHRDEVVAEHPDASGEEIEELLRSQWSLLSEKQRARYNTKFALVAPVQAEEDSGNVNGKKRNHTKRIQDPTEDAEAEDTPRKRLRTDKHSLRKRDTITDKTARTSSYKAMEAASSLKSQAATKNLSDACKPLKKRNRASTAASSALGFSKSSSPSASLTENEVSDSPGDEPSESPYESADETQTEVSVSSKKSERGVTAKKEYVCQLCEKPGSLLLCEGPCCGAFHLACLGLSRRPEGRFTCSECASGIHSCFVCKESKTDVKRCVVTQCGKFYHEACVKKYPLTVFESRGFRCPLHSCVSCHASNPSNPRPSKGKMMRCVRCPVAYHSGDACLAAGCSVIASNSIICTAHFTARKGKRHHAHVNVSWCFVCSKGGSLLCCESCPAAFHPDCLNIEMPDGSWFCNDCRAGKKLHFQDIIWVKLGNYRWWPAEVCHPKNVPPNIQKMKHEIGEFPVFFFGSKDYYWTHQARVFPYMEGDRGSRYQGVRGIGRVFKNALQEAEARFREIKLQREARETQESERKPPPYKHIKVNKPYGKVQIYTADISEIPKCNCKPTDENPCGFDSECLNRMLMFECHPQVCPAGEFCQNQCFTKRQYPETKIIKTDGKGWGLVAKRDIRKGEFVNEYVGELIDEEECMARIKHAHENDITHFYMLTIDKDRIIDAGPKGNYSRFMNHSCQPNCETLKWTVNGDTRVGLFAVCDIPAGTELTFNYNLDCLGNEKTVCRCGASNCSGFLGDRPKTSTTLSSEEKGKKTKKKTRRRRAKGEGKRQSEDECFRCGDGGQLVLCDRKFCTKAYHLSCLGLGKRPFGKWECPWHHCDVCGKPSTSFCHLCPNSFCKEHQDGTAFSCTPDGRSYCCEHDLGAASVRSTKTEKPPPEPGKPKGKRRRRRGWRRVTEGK

[3] = target: 72 kDa type IV collagenase (Homo sapiens, UniProt P08253); experiment: Dose Response validation of uHTS RPN11 inhibitor hits using a MMP-2 Fluorescence assay.; type: functional
[4] = target: DNA (cytosine-5)-methyltransferase 1 (Homo sapiens, UniProt P26358); experiment: inhibition of DNA methylation by DNMT1 – biochemical, fluorescent molecular beacon, confirmation (AID 602386); type: functional
[5] = target: T2, Rac GTPase-activating protein 1 (Homo sapiens, UniProt Q9H0H5); experiment: blockers of MgcRacGAP-driven Rac1 GTP hydrolysis – biochemical, ADP Hunter fluorescence, primary and confirmatory, confirmation (AID 624330); type: functional
T2 sequence (Q9H0H5 whole entry): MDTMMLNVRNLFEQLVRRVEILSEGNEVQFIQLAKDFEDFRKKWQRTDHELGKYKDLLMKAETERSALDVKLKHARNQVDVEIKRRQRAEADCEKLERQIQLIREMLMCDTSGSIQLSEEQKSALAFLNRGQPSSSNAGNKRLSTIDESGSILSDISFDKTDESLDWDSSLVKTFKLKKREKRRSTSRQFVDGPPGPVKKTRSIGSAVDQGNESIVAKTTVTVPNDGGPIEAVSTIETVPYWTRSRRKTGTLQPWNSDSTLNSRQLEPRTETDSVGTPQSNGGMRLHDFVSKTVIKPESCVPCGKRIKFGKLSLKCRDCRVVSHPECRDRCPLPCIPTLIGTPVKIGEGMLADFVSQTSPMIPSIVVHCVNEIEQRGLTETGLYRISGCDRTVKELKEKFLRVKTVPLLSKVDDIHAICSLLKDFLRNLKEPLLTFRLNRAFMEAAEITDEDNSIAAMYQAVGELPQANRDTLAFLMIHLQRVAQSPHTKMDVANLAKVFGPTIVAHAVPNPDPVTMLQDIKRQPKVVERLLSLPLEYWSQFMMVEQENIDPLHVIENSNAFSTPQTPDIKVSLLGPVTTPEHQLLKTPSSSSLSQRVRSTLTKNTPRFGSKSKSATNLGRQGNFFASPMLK

Aminopeptidase N = target: T3, Aminopeptidase N (Plasmodium falciparum FcB1/Columbia, UniProt O96935); experiment: malaria alanyl aminopeptidase activity blockers – biochemical, fluorogenic H-Leu-NHMec substrate, 1536-well (AID 1445); design: species or system Plasmodium falciparum 3D7, 3D7
T3 sequence (O96935 whole entry): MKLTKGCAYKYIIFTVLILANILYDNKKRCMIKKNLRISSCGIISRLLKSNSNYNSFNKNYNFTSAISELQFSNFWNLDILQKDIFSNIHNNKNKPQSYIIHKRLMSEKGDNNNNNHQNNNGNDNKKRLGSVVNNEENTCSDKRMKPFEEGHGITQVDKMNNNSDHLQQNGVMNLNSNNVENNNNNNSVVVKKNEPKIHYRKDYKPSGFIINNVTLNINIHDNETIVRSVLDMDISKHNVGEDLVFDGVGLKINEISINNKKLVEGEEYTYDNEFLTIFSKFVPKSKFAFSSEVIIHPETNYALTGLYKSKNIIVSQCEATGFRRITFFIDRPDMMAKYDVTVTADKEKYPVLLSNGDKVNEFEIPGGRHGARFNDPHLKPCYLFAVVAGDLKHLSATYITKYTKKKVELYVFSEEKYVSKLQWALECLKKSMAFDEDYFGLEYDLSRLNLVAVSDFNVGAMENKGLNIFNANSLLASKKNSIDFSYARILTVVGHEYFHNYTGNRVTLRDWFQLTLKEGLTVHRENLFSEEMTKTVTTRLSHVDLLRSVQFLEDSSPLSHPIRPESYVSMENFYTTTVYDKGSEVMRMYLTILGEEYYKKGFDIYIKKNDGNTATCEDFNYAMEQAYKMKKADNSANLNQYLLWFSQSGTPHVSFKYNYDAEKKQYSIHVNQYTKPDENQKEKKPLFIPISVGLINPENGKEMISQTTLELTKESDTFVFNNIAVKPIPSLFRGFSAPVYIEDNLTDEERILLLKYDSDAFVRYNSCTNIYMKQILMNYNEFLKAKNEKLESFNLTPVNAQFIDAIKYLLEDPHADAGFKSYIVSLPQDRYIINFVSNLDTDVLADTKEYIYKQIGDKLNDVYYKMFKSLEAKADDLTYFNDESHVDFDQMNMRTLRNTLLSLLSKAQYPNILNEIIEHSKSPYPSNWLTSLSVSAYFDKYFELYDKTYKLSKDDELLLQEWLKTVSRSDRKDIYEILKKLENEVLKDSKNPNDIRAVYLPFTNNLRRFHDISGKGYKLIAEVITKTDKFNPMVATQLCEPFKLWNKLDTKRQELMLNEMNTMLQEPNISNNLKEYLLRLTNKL

[6] = target: Induced myeloid leukemia cell differentiation protein Mcl-1 (Homo sapiens, UniProt Q07820); type: functional
[7] = target: Bifunctional protein GlmU (Mycobacterium tuberculosis, UniProt P9WMN3); experiment: Inhibitors of Mycobacterial Glucosamine-1-phosphate acetyl transferase (GlmU). Secondary screen.; design: species or system Mycobacterium tuberculosis H37Rv
Prothrombin = Prothrombin (Bos taurus, UniProt P00735); experiment: thrombin protease inhibitors – biochemical, fluorescence polarization, uHTS hits, dose response (AID 602369); type: functional
[8] = target: Sphingosine 1-phosphate receptor 2 (Homo sapiens, UniProt O95136); experiment: Dose Response Cell Based Assay for Antagonists of the S1P2 Receptor. [Related pubchem assays: 856, 736 ]; type: functional
INS1 = experiment: INS-1E survival protection against cytokine death – cell-based, luminescence, retest, dose response (AID 449756); type: functional; settings: Rattus norvegicus;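 further: cell death triggered by IL-1 beta plus TNF-alpha plus IFN-gamma mixture; protective hits raise ATP signal compared with cytokine alone wells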
[9] = NIH-3T3 fibroblast cytotoxicity, dose response, cytotoxicity control, cell-based, fluorescence, Alamar Blue, secondary assay (AID 2327); type: functional;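 further: NIH-3T3 mouse fibroblasts cultured with fluconazole at 8 µg/mL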
[10] = HEK-293T viability loss, compound-treated – cell-based, uHTS hits, cytotoxicity control for B/T-cell NF-kB inhibitor project, dose response (AID 489019); type: functional;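 further: IC50 reflects cytotoxicity as loss of cell viability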
Protein skinhead-1 = target: T4, Protein skinhead-1 (Caenorhabditis elegans, UniProt P34707); type: functional
T4 sequence (P34707 whole entry): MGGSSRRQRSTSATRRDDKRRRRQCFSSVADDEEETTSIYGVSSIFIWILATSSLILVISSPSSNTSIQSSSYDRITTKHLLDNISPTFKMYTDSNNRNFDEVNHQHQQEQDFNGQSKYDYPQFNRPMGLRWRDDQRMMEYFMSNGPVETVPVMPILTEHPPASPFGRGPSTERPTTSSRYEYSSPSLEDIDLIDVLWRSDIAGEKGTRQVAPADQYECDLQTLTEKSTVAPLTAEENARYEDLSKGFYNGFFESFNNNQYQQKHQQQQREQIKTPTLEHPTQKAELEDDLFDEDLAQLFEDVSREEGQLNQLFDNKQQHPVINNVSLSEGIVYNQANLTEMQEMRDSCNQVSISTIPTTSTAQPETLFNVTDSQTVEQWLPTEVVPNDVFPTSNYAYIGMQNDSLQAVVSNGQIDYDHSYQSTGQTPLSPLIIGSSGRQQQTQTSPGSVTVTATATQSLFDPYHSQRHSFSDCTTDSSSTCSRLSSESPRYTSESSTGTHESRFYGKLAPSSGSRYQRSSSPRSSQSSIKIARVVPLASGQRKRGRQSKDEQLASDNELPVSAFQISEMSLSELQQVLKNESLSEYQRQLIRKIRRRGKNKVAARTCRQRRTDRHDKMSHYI

[11] = fluconazole-exposed Candida albicans growth modulators – fluorescence, retest, confirmation (AID 2467); type: functional, cell-based
[12] = viability loss in Vero cells – cytotoxicity control for Vif-APOBEC3G degradation inhibitor project, dose response (AID 1117358); type: functional; settings: Vero
Jurkat = experiment: blockers of NF-kB activation in T cells – Jurkat, luciferase reporter, luminescence, B- and T-cell, dose response (AID 489004); type: functional, cell-based; settings: Homo sapiens;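 further: NF-kB luciferase reporter Jurkat cells stimulated with PMA plus ionomycin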
[13] = target: Signal transducer and activator of transcription 1-alpha/beta (Homo sapiens, UniProt P42224); experiment: inhibition of STAT1 reporter activity – cell-based, NIH 3T3, luciferase reporter, dose response (AID 1396); type: functional
Chain of Signal transducer and activator of transcription 1-alpha/beta (P42224 whole entry): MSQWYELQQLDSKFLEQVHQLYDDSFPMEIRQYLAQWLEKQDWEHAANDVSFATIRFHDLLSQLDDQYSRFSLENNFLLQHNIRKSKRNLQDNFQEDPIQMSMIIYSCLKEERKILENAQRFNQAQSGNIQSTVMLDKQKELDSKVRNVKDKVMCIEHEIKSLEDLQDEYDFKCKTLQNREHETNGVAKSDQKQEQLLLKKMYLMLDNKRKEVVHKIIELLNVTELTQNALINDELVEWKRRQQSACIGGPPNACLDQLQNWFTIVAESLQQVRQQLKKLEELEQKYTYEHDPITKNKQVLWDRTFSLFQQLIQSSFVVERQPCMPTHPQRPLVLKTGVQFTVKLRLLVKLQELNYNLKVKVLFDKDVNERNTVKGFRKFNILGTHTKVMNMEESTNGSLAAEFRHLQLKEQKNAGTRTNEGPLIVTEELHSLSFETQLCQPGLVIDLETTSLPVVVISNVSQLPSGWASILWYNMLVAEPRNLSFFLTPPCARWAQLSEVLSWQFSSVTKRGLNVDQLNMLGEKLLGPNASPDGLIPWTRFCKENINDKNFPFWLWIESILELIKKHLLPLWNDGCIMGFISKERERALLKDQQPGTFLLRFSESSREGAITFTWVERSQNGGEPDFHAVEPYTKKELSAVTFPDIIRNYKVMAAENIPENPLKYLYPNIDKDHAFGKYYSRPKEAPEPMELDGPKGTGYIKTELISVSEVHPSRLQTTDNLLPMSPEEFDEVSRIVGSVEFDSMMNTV

Chain of Bifunctional protein GlmU (P9WMN3 whole entry): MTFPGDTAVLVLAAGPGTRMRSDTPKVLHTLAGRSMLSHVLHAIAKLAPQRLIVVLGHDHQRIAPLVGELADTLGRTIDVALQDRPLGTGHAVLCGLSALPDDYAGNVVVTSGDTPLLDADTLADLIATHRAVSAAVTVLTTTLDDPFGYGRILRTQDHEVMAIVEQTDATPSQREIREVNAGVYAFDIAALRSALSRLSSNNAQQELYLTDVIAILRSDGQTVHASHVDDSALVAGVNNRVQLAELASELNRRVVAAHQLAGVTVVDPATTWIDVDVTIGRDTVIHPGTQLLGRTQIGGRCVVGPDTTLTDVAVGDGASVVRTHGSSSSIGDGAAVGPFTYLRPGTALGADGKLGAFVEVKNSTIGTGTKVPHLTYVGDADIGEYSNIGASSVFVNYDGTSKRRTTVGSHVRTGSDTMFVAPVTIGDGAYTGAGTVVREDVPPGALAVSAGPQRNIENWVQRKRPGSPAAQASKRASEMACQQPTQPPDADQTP
Chain of 26S proteasome non-ATPase regulatory subunit 14 (O00487 whole entry): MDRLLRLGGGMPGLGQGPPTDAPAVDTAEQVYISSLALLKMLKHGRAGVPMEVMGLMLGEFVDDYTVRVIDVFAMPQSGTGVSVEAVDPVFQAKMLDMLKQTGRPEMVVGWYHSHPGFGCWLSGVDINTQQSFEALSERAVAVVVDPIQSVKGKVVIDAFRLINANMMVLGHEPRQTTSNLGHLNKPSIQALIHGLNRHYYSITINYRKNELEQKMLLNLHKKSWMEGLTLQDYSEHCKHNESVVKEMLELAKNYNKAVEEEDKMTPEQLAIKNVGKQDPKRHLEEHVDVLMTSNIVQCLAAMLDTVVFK
Chain of Induced myeloid leukemia cell differentiation protein Mcl-1 (Q07820 whole entry): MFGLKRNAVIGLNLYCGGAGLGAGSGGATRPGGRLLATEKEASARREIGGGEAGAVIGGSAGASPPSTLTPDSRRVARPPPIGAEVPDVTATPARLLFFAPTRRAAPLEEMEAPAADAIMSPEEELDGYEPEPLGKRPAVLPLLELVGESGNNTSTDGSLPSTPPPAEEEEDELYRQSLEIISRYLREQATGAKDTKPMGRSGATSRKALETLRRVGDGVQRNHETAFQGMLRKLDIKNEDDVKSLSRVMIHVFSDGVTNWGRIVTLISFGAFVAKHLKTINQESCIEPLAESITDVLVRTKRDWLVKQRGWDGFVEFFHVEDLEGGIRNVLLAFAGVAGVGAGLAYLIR
Chain of Sphingosine 1-phosphate receptor 2 (O95136 whole entry): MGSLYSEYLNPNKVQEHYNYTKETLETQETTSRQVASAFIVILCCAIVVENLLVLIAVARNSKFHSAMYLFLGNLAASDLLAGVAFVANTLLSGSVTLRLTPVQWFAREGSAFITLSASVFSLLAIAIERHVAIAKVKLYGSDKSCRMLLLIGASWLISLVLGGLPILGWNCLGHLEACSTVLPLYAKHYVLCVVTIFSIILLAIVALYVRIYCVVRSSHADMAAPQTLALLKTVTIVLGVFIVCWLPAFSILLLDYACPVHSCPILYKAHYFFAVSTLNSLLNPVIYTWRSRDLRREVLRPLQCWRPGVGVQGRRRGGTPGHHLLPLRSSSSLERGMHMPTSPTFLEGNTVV
Chain of DNA (cytosine-5)-methyltransferase 1 (P26358 whole entry): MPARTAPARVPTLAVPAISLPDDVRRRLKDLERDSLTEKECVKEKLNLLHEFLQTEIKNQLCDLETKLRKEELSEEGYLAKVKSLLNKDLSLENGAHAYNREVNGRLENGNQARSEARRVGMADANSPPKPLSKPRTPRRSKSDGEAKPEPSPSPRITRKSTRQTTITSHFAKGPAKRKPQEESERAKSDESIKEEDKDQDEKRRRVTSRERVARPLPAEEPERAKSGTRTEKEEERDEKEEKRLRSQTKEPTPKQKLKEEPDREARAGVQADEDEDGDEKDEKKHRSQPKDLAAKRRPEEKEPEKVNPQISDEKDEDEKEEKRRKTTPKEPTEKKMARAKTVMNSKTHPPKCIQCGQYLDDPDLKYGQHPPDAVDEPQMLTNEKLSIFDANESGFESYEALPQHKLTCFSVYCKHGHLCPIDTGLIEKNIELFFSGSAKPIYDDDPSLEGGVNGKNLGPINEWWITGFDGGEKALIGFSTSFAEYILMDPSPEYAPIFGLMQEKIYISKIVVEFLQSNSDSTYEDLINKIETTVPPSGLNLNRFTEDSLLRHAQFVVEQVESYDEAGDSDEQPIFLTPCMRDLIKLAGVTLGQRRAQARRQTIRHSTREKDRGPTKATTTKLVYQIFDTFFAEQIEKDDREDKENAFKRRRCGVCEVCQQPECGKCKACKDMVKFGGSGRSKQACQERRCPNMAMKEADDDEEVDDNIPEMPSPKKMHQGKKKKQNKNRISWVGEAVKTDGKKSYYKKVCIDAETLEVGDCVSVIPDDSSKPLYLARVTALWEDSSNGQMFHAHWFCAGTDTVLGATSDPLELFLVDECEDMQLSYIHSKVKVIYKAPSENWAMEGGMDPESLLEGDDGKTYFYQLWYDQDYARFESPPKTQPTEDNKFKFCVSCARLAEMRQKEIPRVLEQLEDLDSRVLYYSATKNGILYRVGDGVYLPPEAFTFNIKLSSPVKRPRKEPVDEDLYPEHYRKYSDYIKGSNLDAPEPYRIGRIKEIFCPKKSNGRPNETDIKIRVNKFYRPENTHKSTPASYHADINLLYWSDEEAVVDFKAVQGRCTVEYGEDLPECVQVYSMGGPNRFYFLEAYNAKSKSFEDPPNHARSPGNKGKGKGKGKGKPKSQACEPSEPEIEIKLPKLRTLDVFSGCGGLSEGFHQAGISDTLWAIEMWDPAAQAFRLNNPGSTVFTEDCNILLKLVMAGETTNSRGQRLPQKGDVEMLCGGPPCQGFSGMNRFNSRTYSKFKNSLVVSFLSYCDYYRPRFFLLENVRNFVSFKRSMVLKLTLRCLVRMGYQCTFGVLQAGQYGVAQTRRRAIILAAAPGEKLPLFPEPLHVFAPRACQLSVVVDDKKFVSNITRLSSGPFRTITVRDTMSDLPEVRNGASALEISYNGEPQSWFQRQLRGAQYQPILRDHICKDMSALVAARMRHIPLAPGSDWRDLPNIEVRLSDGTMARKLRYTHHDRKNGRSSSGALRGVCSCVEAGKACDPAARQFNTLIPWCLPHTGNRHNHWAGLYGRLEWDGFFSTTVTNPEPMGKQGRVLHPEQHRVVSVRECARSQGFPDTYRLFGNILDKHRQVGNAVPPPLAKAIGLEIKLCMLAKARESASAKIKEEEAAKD
Chain of 72 kDa type IV collagenase (P08253 whole entry): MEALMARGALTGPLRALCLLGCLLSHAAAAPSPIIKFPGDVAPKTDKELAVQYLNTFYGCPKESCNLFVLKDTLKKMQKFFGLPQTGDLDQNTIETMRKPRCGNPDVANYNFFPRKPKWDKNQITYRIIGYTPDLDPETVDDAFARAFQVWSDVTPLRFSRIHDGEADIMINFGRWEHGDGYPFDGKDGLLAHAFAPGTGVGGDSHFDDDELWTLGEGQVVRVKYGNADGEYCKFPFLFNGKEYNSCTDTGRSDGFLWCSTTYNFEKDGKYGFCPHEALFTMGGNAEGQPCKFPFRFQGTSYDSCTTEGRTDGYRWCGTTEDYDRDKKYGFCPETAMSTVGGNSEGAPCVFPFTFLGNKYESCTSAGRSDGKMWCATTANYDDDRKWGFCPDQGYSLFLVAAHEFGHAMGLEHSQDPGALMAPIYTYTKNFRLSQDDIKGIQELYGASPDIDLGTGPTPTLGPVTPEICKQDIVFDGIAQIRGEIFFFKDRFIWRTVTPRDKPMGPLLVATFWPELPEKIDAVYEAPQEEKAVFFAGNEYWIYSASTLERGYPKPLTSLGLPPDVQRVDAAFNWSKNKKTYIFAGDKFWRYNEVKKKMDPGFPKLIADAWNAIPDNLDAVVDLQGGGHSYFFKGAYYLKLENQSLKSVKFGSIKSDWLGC

Compound: CCS(=O)(=O)C1=NN2C(=N)/C(=C\c3ccc(SCc4ccco4)o3)C(=O)N=C2S1
- IC50 [1]: 12 µM (active)
- AC50 [2]: 7.62 µM (active)
- IC50 [3]: 4.49 µM (active)
- IC50 [4]: 5.71 µM (active)
- IC50 [5]: 132 µM (active)
- IC50 (Aminopeptidase N): 24.2 µM (active)
- IC50 [6]: 3.96 µM (active)
- IC50 [7]: 49.4 µM (active)
- IC50 (Prothrombin): 28.5 µM (active)

Compound: CCCCCCCCNc1ncnc2ccccc12
- IC50 [8]: 1.23 µM (active)
- AC50 (INS1): 0.232 µM (active)
- EC50 [9]: > 160 µM (inactive)
- IC50 [10]: > 80 µM (inactive)
- IC50 (Protein skinhead-1): 33 µM (active)
- EC50 [11]: 3.26 µM (active)
- CC50 [12]: > 40 µM (active)
- IC50 (Jurkat): > 80 µM (inactive)

Compound: CCOC(=O)C(/C=N/c1cc(C)nn1-c1ccccc1)=C(/O)OCC
- IC50 [13]: 6.37 µM (active)
